Paper PMC6210068 (ACS Omega, 2018)

Columns and labels:
DOR = DOR (Homo sapiens, UniProt P41143); assay: Radioligand binding at DOR; details: 10 μM
rat kidney TSPO = rat kidney TSPO (Rattus norvegicus, UniProt P16257); assay: Radioligand binding at TSPO; details: for Ki: TSPO, rat TSPO, [3H]PK11195
hDAT = hDAT (Homo sapiens, UniProt Q01959); assay: Radioligand binding at DAT; details: 10 μM; [3H]WIN35428; negative = enhanced radioligand binding
MOR = MOR (Homo sapiens, UniProt P35372); assay: biochemical; type: binding; details: read-out: radioligand Kd, MOR
Chain of MOR (P35372 whole entry): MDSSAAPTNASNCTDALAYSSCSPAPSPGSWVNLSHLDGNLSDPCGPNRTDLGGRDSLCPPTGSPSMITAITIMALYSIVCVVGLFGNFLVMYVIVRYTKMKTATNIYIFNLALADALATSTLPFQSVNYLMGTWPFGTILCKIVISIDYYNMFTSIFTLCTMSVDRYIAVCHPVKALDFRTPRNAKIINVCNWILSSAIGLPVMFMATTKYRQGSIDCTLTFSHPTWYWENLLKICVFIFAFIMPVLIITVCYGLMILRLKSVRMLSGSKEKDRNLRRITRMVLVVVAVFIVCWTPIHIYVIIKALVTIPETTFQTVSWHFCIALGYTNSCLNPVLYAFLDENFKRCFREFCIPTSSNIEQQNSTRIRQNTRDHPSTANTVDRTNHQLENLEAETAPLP

KOR = KOR (Homo sapiens, UniProt P41145); assay: biochemical; type: binding; details: Table 3; 10 μM
Chain of KOR (P41145 whole entry): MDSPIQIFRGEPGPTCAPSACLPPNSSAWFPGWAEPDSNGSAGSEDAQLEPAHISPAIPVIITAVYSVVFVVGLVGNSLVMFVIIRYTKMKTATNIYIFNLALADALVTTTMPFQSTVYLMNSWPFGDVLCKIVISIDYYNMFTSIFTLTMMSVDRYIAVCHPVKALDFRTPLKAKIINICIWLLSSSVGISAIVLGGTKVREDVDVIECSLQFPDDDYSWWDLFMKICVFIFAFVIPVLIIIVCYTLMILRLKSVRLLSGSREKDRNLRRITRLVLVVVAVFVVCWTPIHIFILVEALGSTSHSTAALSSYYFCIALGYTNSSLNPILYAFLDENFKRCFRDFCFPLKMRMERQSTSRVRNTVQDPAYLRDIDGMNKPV

Chain of DOR (P41143 whole entry): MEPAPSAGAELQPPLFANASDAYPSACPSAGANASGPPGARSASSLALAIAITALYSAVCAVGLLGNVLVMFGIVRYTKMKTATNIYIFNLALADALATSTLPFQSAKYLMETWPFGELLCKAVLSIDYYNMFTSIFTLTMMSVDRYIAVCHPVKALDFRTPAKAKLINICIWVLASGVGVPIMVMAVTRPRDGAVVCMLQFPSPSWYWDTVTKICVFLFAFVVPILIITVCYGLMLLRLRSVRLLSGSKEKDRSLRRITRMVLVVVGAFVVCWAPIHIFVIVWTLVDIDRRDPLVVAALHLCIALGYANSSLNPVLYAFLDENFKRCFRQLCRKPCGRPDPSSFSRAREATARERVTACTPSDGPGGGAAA
Chain of hDAT (Q01959 whole entry): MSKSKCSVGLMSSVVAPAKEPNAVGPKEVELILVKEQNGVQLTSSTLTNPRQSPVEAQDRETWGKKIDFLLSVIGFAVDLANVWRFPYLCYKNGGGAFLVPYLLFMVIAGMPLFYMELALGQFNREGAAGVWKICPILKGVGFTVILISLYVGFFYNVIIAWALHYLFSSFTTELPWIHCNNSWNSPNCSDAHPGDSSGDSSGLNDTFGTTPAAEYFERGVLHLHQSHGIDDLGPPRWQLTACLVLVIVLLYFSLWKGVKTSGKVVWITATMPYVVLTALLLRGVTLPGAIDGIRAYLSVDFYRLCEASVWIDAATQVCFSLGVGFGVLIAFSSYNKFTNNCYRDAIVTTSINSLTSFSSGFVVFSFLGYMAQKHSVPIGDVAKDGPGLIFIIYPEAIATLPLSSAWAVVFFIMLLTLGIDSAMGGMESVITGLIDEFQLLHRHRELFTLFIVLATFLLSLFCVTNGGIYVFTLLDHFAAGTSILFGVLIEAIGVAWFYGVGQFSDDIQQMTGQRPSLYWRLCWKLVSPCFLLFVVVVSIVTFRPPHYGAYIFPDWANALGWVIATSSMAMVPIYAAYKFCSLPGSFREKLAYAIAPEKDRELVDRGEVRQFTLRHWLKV
Chain of rat kidney TSPO (P16257 whole entry): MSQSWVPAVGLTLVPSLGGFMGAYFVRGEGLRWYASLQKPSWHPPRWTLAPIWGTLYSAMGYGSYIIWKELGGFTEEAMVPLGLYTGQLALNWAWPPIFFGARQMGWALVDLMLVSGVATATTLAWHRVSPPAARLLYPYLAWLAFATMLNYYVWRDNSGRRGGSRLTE

Compound	DOR, inhibition of radioligand binding at 10 μM (class) (DOR; Table 1)	TSPO, inhibition of radioligand binding at 10 μM (class) (rat kidney TSPO; Table 1)	DAT, inhibition, % of control at 10 μM (hDAT)	DOR, inhibition of radioligand binding at 10 μM (class) (DOR; Table 4)	further results
CNC(=O)[C@@]12C[C@@H]1[C@@H](n1cnc3c(NC)cc(C#Cc4ccc(Cl)s4)nc31)[C@H](O)[C@@H]2O [compound 16]	^e (30–50% inhibition of radioligand binding at 10 μM)	^e (30–50% inhibition of radioligand binding at 10 μM)	1%	–	–
CNC(=O)[C@@]12C[C@@H]1[C@@H](n1cnc3c(NC)nc(C#Cc4ccccc4)nc31)[C@H](O)[C@@H]2O [compound 12]	^e (30–50% inhibition of radioligand binding at 10 μM)	^e (30–50% inhibition of radioligand binding at 10 μM)	–211%	–	–
O[C@@H]1[C@H](O)[C@@H]2C[C@@H]2[C@H]1n1cnc2c(NCc3cccc(Cl)c3)nc(C#Cc3ccc(F)c(F)c3)nc21 [compound 3]	–	–	16%	^g (<30% inhibition of radioligand binding at 10 μM)	–
CNC(=O)[C@@]12C[C@@H]1[C@@H](n1cnc3c(NC)nc(C#Cc4ccc(F)c(F)c4)nc31)[C@H](O)[C@@H]2O [compound 11]	^e (30–50% inhibition of radioligand binding at 10 μM)	^e (30–50% inhibition of radioligand binding at 10 μM)	–322%	–	–
O[C@@H]1[C@H](O)[C@@H]2C[C@@H]2[C@H]1n1cnc2c(NCC(c3ccccc3)c3ccccc3)nc(C#Cc3ccccc3)nc21 [compound 53]	–	–	17%	^g (<30% inhibition of radioligand binding at 10 μM)	Ki (rat kidney TSPO): 3570 ± 1820 nM
CNC(=O)[C@@]12C[C@@H]1[C@@H](n1cnc3c(NCc4cccc(Cl)c4)nc(Cl)nc31)[C@H](O)[C@@H]2O [compound 5]	^e (30–50% inhibition of radioligand binding at 10 μM)	^f (<30% inhibition of radioligand binding at 10 μM)	3%	–	–
Ala2-MePhe4-Glyol5-Enkephalin [compound 99, reference compound]	–	–	–	–	Kd (MOR): 1.73 ± 0.14 nM
CNc1nc(C#Cc2ccccc2)nc2c1ncn2[C@H]1[C@H](O)[C@H](O)[C@@H]2C[C@@H]21 [compound 49]	–	–	–213%	^g (<30% inhibition of radioligand binding at 10 μM)	TSPO, inhibition of radioligand binding at 10 μM (class) (rat kidney TSPO; Table 4): ^f (30–50% inhibition of radioligand binding at 10 μM)
CNC(=O)[C@@]12C[C@@H]1[C@@H](n1cnc3c(NC)nc(C#Cc4ccc(Cl)s4)nc31)[C@H](O)[C@@H]2O [compound 14]	^e (30–50% inhibition of radioligand binding at 10 μM)	–	–	–	Ki (rat kidney TSPO): 684 ± 175 nM
O[C@@H]1[C@H](O)[C@@H]2C[C@@H]2[C@H]1n1cnc2c(NCc3cccc(Cl)c3)ncnc21 [compound 48]	–	–	–2%	^g (<30% inhibition of radioligand binding at 10 μM)	TSPO, inhibition of radioligand binding at 10 μM (class) (rat kidney TSPO; Table 4): ^g (<30% inhibition of radioligand binding at 10 μM)
CNC(=O)[C@H]1O[C@@H](n2cnc3c(NC)nc(C#Cc4ccc(Cl)s4)nc32)[C@H](O)[C@@H]1O [compound 45]	–	–	–321%	–	KOR, inhibition of radioligand binding at 10 μM (class) (KOR): ^e (<30% inhibition of radioligand binding at 10 μM)
CNC(=O)[C@@]12C[C@@H]1[C@@H](n1cnc3c(NC)nc(C#Cc4ccc(Br)s4)nc31)[C@H](O)[C@@H]2O [compound 15]	^e (30–50% inhibition of radioligand binding at 10 μM)	^f (<30% inhibition of radioligand binding at 10 μM)	–235%	–	–
CNC(=O)[C@@]12C[C@@H]1[C@@H](n1cnc3c(NCc4cccc(Cl)c4)nc(C#Cc4ccccc4Cl)nc31)[C@H](O)[C@@H]2O [compound 8]	f (<30% inhibition of radioligand binding at 10 μM)	–	50%	–	Ki (rat kidney TSPO): ~300 nM
